Reference: ChEMBL document CHEMBL5291721, “A preclinical secondary pharmacology resource illuminates target-adverse drug reaction associations of marketed drugs” (Nat Commun, 2023)

What was measured:
Adenosine receptor A3 [1] = molecular target: T1, Adenosine receptor A3 (Homo sapiens, UniProt P0DMS8)
T1 sequence (P0DMS8 whole entry): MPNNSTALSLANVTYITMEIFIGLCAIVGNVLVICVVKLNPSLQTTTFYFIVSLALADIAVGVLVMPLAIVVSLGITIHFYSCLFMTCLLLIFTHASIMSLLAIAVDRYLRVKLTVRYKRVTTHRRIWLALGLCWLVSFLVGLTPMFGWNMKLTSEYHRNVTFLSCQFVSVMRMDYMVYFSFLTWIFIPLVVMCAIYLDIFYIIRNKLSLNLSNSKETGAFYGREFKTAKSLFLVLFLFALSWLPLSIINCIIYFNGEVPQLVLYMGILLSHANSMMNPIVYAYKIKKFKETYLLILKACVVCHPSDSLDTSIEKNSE

Vasopressin V2 receptor = Vasopressin V2 receptor (Homo sapiens, UniProt P30518)
Vasopressin V1a receptor = Vasopressin V1a receptor (Homo sapiens, UniProt P37288)
[2] = molecular target: Gamma-aminobutyric acid receptor subunit alpha-1 (Rattus norvegicus, UniProt P62813)
[3] = molecular target: cGMP-inhibited 3',5'-cyclic phosphodiesterase 3A (Homo sapiens, UniProt Q14432); type: functional
[4] = molecular target: T2, Alpha-1A adrenergic receptor (Homo sapiens, UniProt P35348); type: functional, cell-based
T2 sequence (P35348 whole entry): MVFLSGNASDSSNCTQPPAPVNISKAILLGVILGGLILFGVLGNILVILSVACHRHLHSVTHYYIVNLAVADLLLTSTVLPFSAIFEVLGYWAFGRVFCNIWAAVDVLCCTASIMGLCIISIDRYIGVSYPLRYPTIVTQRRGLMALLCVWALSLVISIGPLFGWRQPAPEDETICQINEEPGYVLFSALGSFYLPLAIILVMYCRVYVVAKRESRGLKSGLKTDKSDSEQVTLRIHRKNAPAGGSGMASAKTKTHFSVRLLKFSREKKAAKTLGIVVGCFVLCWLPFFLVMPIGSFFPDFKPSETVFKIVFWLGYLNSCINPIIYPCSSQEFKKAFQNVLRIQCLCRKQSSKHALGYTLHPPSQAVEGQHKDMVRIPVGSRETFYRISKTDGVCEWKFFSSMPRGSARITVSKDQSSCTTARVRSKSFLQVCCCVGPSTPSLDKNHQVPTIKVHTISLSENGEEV

[5] = molecular target: T3, Muscarinic acetylcholine receptor M2 (Homo sapiens, UniProt P08172); type: functional, cell-based
T3 sequence (P08172 whole entry): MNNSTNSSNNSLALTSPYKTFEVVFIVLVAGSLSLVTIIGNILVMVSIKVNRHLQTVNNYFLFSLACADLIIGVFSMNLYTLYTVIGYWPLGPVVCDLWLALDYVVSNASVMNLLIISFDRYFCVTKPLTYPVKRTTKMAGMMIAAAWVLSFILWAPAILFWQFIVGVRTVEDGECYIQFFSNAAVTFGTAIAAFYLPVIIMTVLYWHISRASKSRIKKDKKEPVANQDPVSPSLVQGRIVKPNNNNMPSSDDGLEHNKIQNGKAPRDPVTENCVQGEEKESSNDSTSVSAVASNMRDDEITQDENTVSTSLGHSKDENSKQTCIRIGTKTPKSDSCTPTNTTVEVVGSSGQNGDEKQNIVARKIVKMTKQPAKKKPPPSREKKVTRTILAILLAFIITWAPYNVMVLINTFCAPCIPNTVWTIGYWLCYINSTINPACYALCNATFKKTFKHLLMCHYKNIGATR

[6] = molecular target: T4, Muscarinic acetylcholine receptor M1 (Homo sapiens, UniProt P11229); type: functional, cell-based
T4 sequence (P11229 whole entry): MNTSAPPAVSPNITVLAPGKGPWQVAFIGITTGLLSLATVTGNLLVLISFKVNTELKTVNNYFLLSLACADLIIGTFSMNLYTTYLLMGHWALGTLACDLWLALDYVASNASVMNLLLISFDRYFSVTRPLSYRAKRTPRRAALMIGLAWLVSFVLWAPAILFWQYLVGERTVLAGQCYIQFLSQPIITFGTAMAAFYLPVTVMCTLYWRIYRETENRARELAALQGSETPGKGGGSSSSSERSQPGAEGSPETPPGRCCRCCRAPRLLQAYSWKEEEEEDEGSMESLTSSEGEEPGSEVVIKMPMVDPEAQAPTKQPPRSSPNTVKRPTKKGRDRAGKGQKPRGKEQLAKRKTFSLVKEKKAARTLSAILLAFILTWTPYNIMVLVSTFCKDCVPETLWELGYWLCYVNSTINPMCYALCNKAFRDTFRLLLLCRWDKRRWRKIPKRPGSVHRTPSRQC

[7] = molecular target: 5-hydroxytryptamine receptor 2B (Homo sapiens, UniProt P41595); type: functional, cell-based
Adenosine receptor A2a = Adenosine receptor A2a (Homo sapiens, UniProt P29274)
Motilin receptor = Motilin receptor (Homo sapiens, UniProt O43193)
Mu-type opioid receptor = Mu-type opioid receptor (Homo sapiens, UniProt P35372)
[8] = molecular target: 3',5'-cyclic-AMP phosphodiesterase 4D (Homo sapiens, UniProt Q08499); type: functional
Adenosine receptor A3 [9] = molecular target: T1, Adenosine receptor A3; remark: listed apart in the source
[10] = molecular target: Beta-2 adrenergic receptor (Homo sapiens, UniProt P07550); type: functional, cell-based
[11] = molecular target: T2, Alpha-1A adrenergic receptor; type: functional, cell-based; remark: listed apart in the source
[12] = molecular target: T2, Alpha-1A adrenergic receptor; type: functional, cell-based; remark: listed apart in the source
Also: assay procedure not described here.

Mu-type opioid receptor, sequence (P35372 whole entry): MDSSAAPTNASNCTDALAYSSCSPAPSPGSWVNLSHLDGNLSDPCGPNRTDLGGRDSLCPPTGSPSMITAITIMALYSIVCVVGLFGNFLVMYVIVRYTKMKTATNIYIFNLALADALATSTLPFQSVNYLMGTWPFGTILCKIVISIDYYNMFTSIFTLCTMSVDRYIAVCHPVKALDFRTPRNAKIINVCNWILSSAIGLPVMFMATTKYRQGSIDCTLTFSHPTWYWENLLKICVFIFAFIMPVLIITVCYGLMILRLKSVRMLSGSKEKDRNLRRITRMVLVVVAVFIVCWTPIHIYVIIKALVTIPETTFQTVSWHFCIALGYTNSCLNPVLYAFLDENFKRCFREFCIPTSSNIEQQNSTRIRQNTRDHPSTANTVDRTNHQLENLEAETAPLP
Gamma-aminobutyric acid receptor subunit alpha-1, sequence (P62813 whole entry): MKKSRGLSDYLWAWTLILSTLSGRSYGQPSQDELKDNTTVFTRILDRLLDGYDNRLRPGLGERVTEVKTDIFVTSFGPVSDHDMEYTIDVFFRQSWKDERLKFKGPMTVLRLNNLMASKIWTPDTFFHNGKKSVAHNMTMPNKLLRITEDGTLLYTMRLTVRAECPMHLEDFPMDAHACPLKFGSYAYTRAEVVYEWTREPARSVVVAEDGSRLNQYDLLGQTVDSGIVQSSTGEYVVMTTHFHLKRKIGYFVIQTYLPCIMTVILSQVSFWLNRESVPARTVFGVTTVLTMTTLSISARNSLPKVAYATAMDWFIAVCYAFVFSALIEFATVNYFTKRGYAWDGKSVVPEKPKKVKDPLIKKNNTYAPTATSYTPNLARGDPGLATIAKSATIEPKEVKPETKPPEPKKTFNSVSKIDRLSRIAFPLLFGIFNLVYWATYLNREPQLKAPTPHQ
Vasopressin V1a receptor, sequence (P37288 whole entry): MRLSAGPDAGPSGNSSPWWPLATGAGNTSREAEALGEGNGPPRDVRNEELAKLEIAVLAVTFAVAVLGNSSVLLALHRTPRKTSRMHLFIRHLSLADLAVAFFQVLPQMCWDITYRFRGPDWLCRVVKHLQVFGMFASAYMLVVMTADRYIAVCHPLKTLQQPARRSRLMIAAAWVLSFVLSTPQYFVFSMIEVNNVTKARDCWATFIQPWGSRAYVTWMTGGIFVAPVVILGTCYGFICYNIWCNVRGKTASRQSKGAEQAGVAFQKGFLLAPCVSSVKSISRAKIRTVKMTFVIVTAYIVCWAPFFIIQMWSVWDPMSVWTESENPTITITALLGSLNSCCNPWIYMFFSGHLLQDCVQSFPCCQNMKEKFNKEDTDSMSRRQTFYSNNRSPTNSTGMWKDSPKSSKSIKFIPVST
3',5'-cyclic-AMP phosphodiesterase 4D, sequence (Q08499 whole entry): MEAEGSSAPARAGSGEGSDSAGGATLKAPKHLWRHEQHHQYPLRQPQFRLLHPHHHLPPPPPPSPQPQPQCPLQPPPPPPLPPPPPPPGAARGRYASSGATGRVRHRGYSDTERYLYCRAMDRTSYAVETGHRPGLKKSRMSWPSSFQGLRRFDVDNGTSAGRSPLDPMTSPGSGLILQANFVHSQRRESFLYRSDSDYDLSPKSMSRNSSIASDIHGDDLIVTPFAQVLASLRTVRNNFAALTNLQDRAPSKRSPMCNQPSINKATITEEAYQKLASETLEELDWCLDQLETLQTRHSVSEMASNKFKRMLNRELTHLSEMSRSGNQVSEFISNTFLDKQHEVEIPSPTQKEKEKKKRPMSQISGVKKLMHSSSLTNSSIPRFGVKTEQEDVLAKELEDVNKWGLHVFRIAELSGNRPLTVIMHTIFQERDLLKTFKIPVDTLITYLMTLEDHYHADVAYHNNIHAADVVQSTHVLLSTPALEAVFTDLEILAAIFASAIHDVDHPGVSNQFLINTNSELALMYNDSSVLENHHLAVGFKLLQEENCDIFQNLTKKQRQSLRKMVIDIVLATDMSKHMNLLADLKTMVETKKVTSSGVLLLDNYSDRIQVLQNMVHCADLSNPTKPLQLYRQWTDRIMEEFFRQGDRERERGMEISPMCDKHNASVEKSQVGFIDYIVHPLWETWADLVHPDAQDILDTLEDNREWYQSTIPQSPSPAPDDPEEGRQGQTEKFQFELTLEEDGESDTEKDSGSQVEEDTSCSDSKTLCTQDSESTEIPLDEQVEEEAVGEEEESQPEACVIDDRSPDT
Adenosine receptor A2a, sequence (P29274 whole entry): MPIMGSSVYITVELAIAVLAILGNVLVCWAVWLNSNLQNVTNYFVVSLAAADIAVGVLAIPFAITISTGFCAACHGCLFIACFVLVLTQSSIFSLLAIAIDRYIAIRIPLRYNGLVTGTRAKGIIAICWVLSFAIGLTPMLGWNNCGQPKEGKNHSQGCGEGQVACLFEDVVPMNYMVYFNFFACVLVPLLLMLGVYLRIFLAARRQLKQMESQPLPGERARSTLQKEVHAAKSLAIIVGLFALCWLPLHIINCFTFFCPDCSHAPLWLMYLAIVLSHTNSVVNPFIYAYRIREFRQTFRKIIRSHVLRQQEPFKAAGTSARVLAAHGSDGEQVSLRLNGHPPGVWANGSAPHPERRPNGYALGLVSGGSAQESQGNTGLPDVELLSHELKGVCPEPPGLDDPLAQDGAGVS
Vasopressin V2 receptor, sequence (P30518 whole entry): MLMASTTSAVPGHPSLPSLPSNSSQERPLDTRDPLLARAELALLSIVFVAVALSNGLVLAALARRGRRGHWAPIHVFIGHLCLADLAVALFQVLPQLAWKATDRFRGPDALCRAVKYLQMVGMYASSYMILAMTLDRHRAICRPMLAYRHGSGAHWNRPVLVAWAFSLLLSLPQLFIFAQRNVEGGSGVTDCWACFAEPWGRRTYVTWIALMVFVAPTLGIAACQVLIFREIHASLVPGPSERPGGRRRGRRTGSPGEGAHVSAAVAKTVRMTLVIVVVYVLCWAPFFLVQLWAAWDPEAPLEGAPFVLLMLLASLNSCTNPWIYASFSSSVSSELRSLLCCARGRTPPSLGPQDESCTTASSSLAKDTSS
Motilin receptor, sequence (O43193 whole entry): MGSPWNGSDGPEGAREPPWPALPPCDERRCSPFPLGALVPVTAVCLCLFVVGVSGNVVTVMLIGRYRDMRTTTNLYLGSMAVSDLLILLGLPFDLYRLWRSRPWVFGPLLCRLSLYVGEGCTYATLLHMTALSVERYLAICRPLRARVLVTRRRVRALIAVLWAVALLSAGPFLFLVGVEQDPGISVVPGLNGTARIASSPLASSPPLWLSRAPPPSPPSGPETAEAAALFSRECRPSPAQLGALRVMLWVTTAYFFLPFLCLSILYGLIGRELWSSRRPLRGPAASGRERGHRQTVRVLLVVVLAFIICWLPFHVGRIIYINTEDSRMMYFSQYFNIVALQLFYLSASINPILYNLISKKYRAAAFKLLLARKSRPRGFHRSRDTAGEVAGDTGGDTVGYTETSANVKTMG
5-hydroxytryptamine receptor 2B, sequence (P41595 whole entry): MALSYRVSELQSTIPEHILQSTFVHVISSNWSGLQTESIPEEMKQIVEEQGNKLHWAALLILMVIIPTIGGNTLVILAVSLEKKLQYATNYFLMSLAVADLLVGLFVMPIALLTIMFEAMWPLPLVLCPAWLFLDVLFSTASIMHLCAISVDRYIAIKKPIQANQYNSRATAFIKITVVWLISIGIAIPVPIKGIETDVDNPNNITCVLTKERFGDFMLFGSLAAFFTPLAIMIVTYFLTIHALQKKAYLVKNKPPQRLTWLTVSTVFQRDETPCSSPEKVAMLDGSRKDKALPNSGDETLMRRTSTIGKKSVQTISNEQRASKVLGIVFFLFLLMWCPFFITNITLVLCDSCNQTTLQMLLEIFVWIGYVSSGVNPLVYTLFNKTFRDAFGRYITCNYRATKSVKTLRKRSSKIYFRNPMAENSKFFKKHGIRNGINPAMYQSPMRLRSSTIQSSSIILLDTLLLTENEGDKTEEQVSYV
cGMP-inhibited 3',5'-cyclic phosphodiesterase 3A, sequence (Q14432 whole entry): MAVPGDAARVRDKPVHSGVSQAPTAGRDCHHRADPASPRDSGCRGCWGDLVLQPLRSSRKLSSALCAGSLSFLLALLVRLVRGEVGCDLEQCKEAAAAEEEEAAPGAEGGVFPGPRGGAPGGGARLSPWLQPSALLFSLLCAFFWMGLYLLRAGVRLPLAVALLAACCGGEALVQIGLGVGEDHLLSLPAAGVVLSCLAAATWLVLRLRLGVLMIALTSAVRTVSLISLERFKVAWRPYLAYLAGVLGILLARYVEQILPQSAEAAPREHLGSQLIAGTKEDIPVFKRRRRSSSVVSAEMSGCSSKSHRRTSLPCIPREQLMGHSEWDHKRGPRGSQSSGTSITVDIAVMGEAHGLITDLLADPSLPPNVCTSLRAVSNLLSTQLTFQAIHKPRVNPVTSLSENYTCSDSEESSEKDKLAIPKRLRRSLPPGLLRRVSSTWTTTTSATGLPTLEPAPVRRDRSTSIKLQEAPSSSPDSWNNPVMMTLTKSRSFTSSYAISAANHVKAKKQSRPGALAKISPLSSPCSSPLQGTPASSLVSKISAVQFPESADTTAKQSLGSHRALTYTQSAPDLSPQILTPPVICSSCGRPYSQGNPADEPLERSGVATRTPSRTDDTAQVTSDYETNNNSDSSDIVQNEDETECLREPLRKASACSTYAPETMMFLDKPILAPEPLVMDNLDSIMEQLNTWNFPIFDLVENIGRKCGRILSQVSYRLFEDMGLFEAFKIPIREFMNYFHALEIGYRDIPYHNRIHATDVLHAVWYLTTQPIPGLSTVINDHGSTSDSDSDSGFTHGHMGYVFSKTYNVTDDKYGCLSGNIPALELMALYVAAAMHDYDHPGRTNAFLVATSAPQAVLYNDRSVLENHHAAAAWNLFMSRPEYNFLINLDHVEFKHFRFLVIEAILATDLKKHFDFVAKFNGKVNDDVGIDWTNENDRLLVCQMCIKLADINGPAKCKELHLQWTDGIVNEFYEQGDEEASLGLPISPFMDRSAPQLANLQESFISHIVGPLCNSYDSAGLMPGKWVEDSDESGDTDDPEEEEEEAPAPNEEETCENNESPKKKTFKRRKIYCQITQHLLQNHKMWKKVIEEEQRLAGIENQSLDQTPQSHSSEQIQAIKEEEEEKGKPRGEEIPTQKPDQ

SMILES	AC50 [4] [µM]	AC50 [6] [µM]	AC50 (Adenosine receptor A3 [9]) [µM]	also measured
CCCN(CCC)C(=O)Cc1c(-c2ccc(Cl)cc2)nc2ccc(Cl)cn12 [ALPIDEM]	> 10	> 30	–	AC50 (Adenosine receptor A3 [1]): 11.5 µM; AC50 (Vasopressin V2 receptor): > 30 µM; AC50 (Vasopressin V1a receptor): > 30 µM; AC50 [2]: > 30 µM; AC50 [3]: > 30 µM; AC50 [5]: > 30 µM; AC50 [7]: > 30 µM; AC50 (Adenosine receptor A2a): > 30 µM; AC50 (Motilin receptor): > 30 µM; AC50 (Mu-type opioid receptor): > 10 µM; AC50 [8]: 13 µM
COc1c2ccoc2cc2oc(=O)ccc12 [BERGAPTEN]	> 30	> 30	23.8	–
CNC(=O)Oc1cccc2ccccc12 [CARBARIL]	> 30	> 30	> 30	–
CC[C@H](C)C[C@H](C)CCCCCCCCC(=O)N[C@H]1C[C@@H](O)[C@@H](NCCN)NC(=O)[C@@H]2[C@@H](O)CCN2C(=O)[C@H]([C@H](O)CCN)NC(=O)[C@H]([C@H](O)[C@@H](O)c2ccc(O)cc2)NC(=O)[C@@H]2C[C@@H](O)CN2C(=O)[C@H]([C@@H](C)O)NC1=O [CASPOFUNGIN]	13	> 30	11.3	–
C/C=C/C/C=C/CCC(=O)[C@H]1O[C@H]1C(N)=O [CERULENIN]	> 30	> 30	> 30	–
N[C@@H](CS)C(=O)O [CYSTEINE]	> 30	> 30	> 30	–
OC[C@H]1O[C@@H](c2ccc(Cl)c(Cc3ccc(O[C@H]4CCOC4)cc3)c2)[C@H](O)[C@@H](O)[C@@H]1O [EMPAGLIFLOZIN]	> 30	> 30	> 30	–
CC(C)(O)CNc1nc(Nc2ccnc(C(F)(F)F)c2)nc(-c2cccc(C(F)(F)F)n2)n1 [ENASIDENIB]	20.3	> 30	0.003	–
CCc1nc(C(N)=O)c(Nc2ccc(N3CCC(N4CCN(C)CC4)CC3)c(OC)c2)nc1NC1CCOCC1 [GILTERITINIB]	> 0.3	> 30	–	–
CC[C@H](c1ccc(O)cc1)[C@@H](CC)c1ccc(O)cc1 [HEXESTROL]	> 3	22.8	8.47	–
CC(C)Cc1ccc(C(C)C(=O)O)cc1 (stereo not drawn) [IBUPROFEN]	> 30	–	> 30	AC50 (Adenosine receptor A3 [1]): > 30 µM; AC50 [10]: > 30 µM; AC50 (Vasopressin V2 receptor): > 30 µM; AC50 (Vasopressin V1a receptor): > 30 µM; AC50 [2]: > 10 µM; AC50 [3]: > 30 µM; AC50 [5]: > 10 µM; AC50 [11]: > 30 µM; AC50 [7]: > 10 µM; AC50 (Adenosine receptor A2a): > 30 µM; AC50 (Motilin receptor): > 10 µM; AC50 (Mu-type opioid receptor): > 30 µM; AC50 [8]: > 30 µM; AC50 [12]: > 30 µM
O=C1/C(=C2\Nc3ccc(S(=O)(=O)O)cc3C2=O)Nc2ccc(S(=O)(=O)O)cc21 [INDIGOTINDISULFONATE]	> 30	> 30	0.995	–
OC[C@H]1O[C@@H](c2ccc(F)c(Cc3cc4ccccc4s3)c2)[C@H](O)[C@@H](O)[C@@H]1O [IPRAGLIFLOZIN]	22.2	> 30	> 30	–
CC(C)C[C@H](NC(=O)CNC(=O)c1cc(Cl)ccc1Cl)B(O)O [IXAZOMIB]	> 30	> 30	> 30	–
C=CCN1CC[C@]23CCCC[C@H]2[C@H]1Cc1ccc(O)cc13 [LEVALLORPHAN]	> 30	> 30	> 30	–
CN1CCCCC1CCN1c2ccccc2Sc2ccc([S+](C)[O-])cc21 (stereo not drawn) [MESORIDAZINE]	0.0171	> 30	> 30	–
N#Cc1ccc2c(c1)N(CCCN1CCC(O)CC1)c1ccccc1S2 [PERICIAZINE]	–	> 30	> 30	–
Cc1onc(-c2ccccc2)c1-c1ccc(S(N)(=O)=O)cc1 [VALDECOXIB]	> 30	–	23.8	AC50 (Adenosine receptor A3 [1]): > 30 µM; AC50 [10]: > 30 µM; AC50 (Vasopressin V2 receptor): > 30 µM; AC50 (Vasopressin V1a receptor): > 30 µM; AC50 [2]: > 10 µM; AC50 [3]: > 30 µM; AC50 [5]: > 10 µM; AC50 [11]: > 30 µM; AC50 [7]: > 10 µM; AC50 (Adenosine receptor A2a): > 30 µM; AC50 (Motilin receptor): > 30 µM; AC50 (Mu-type opioid receptor): > 30 µM; AC50 [8]: > 10 µM; AC50 [12]: > 30 µM
